Numbers after ± are expanded uncertainties.

For the series the following is noted: 298.15 K; 101.33 kPa; Liquid; Vibrating tube method.
Turning to `CN(C)C=O` [dimethylformamide], the mass density was found to be 943.875 ± 0.25 kg/m3. As to `CCCCCC` [hexane], the mass density turned out to be 655.248 ± 0.28 kg/m3. For `CC(=O)N(C)C` [N,N-dimethylethanamide], the mass density was 936.214 ± 0.48 kg/m3.

For `CCCCCCCCC` [nonane], the mass density amounted to 714.064 ± 0.41 kg/m3.

Consider `CCCCCCC` [heptane], for which the mass density turned out to be 679.627 ± 0.27 kg/m3.

As to `CCCCCCCC` [octane], the mass density turned out to be 698.636 ± 0.41 kg/m3.
